Structures can show the parent of a compound that is named as a salt.

This assay has as its system ST2 cells, murine bone marrow-derived stromal cells. The assay is described as follows: Osteoblast differentiation test (ALP activity). The note with it: Mus musculus, ST-2, 96 h, at 0.1 μg/mL, control group (0.1% DMSO) = 100%, four days of culturing, read-out: alkaline phosphatase activity. The class given is cell-based. The protocol:
ST2 cells, murine bone marrow-derived stromal cells, (obtained from RIKEN) were used.
In this test, α-MEM media (obtained from GIBCO BRL Cat. No. 10370-021) containing 10% (v/v) of inactivated calf serum (obtained from Hyclone Laboratories, Inc.) and 1% (v/v) of Penicillin-Streptomycin Liquid (obtained from GIBCO BRL Cat. No. 15140-122) (hereinbelow, abbreviated as 10%-FBS-αMEM) were used. In this test, all culturing was performed in a CO2 incubator (37° C., 95% humidity, 5% CO2).
The aforementioned cells were detached with 2 mL of a 0.25% trypsin solution (obtained from GIBCO BRL Cat. No. 15050-065) and dispersed in 10 mL of 10%-FBS-αMEM. Subsequently, the cells were collected by centrifugation (25° C., 800 rpm, five minutes). Then, a cell suspension containing 40000 of the cells/mL of 10%-FBS-αMEM was prepared. The cell suspension was then dispensed into 96-well plates (the product of Falcon), 100 μL per well, at a density of 4000 cells/well, followed by culturing for 24 hours. To the wells, except for the below-described well containing a control group, the compound was dispensed at final concentrations of 0.01, 0.03, 0.1, and 0.3 μg/ml. To the well of a control group, DMSO was dispensed at a final concentration of 0.1% (v/v). After four days of culturing, the activity of alkaline phosphatase (ALP) was measured in each group.
The measurement of ALP activity was performed as follows. That is, the medium in each well of the culture plates was completely removed. Each well was then washed by dispensing 100 μL of Dulbecco's phosphate buffer (obtained from GIBCO BRL Cat. No. 14190-144) and then removing it. A cell lysate solution containing 10 mM MgCl2 and 2% (v/v) TritonX-100 (Sigma) was prepared and dispensed at 50 μL/well, followed by stirring at room temperature for five minutes. An ALP substrate solution containing 50 mM diethanolamine (Wako Pure Chemical Industries, Ltd., Cat. No. 099-03112) and 20 mM p-nitrophenyl phosphate (Wako Pure Chemical Industries, Ltd., Cat. No. 147-02343) was prepared and dispensed at 50 μL/well, and the plates were left to stand at room temperature for 10 minutes. Subsequently, absorbance was measured by a microplate reader (Bio-Rad Laboratories, Inc.). Setting the measurement value of the control group of each plate at 100%, alkaline phosphatase activity (increase (%)) in the test compound-addition group was calculated, which was assessed as the degree of osteoblast differentiation.
For the molecule `OCCOc1ccc(-c2cnc3ccc(-c4ccncc4)cn23)cc1` [Example 71], the activity at 0.1 µg/mL is no less than 200%.
Consider `COC1COCC1OCCOc1ccc(-c2cnc3ccc(C#N)cn23)cc1` (centres unmarked) [Example 114], for which the activity at 0.1 µg/mL was no less than 200%.
For `CCOc1ccn2c(-c3ccc(OCCO)cc3)cnc2c1` [Example 34], the activity at 0.1 µg/mL is no less than 200%.
Then `O=C(c1ccc(-c2ccn3c(-c4ccc(OCCOC5CCOCC5)cc4)cnc3c2)cn1)N1CCOCC1` [Example 133], with no less than 200%; and `Cn1cc(-c2ccn3c(N4CCC(OCCO)CC4)cnc3c2)cn1` [Example 105], with no less than 200%; and `OCCOc1ccc(-n2cnc3cc(-c4ccncc4)ccc32)cc1` [Example 9, 2-[4-(5-Pyridin-4-yl-1H-benzimidazol-1-yl)phenoxy]ethanol], with no less than 200%.
The figure for `c1ccc2c(c1)ncn2-c1ccc(OCCOC2CCOCC2)cc1` [Example 100] is no less than 200%; for `COc1ccc2ncc(-c3ccc(NCCO)cc3)n2c1` [Example 123] it is no less than 200%; for `FC(F)Oc1ccc2ncn(-c3ccc(OCCOC[C@H]4COCCO4)cc3)c2c1` [Example 95] it is no less than 200%.
Consider `COc1ccc2c(c1)ncn2-c1ccc(OCCO)cc1` [Example 27], for which the activity at 0.1 µg/mL is no less than 200%.
For `OC1COCC1OCCOc1ccc(-n2cnc3ccc(OC(F)F)cc32)cc1` (centres unmarked) [Example 96], the activity at 0.1 µg/mL is no less than 200%.
As to `Fc1ccc2ncc(-c3ccc(OCCO[C@@H]4CCOC4)cc3)n2c1` [Example 110], the activity at 0.1 µg/mL is no less than 200%.
For `COc1ccc2ncc(-c3ccc(OCCO)cc3)n2c1` [Example 124], the activity at 0.1 µg/mL was no less than 200%.
Then `CCOc1ccc2c(c1)ncn2-c1ccc(OCCO)cc1` [Example 30], with no less than 200%; and `COCCNc1ccc(-n2cnc3ccccc32)cc1` [Example 6], with no less than 200%; and `Fc1ccc2ncc(-c3ccc(OCCOCC4CCOCC4)cc3)n2c1` [Example 80], with no less than 200%.
The figure for `OCCNc1ccc(-c2cnn3ccccc23)cc1` [Example 122] is no less than 200%; for `CS(=O)(=O)N1CCN(c2ccc3c(c2)ncn3-c2ccc(OCCO)cc2)CC1` [Example 59] it is no less than 200%; for `O=C(COCCOc1ccc(-n2cnc3ccccc32)cc1)N1CCOCC1` [Example 56] it is no less than 200%.
With `CN(C)C(=O)c1ccc(-c2ccn3c(N4CCC(OCCO)CC4)cnc3c2)cc1` [Example 107], the activity at 0.1 µg/mL was no less than 200%.
Then `Fc1ccc2ncn(-c3ccc(OCCOC4CCOCC4)cc3)c2c1` [Example 48], with no less than 200%.
The figure for `COc1ccn2ncc(-c3ccc(OCCO)cc3)c2c1` [Example 120] is no less than 200%; for `O=C(c1ccc(-c2ccn3c(-c4ccc(OCCO)cc4)cnc3c2)cc1)N1CCOCC1` [Example 102] it is no less than 200%.
Turning to `O=C(C1CC1)N1CCC(OCCOC2CCN(c3cnc4ccc(-c5ccncc5)cn34)CC2)CC1` [Example 140], the activity at 0.1 µg/mL is no less than 200%.
The figure for `COCCOCCOc1ccc(-c2cnc3ccc(F)cn23)cc1` [Example 81] is no less than 200%.
The figure for `N#Cc1ccc2ncc(-c3ccc(OCCOC4CCOCC4)cc3)n2c1` [Example 148] is no less than 200%; for `Cc1ccc2ncc(-c3ccc(OCCOC4CCOCC4)cc3)n2c1` [Example 145] it is no less than 200%; for `NS(=O)(=O)c1ccc(-c2ccc3c(c2)ncn3-c2ccc(OCCO)cc2)cc1` [Example 52] it is no less than 200%.
The figure for `CC(=O)N1CC=C(c2ccc3c(c2)ncn3-c2ccc(OCCO)cc2)CC1` [Example 60] is no less than 200%.
With `CC(=O)N1CC=C(c2ccn3c(N4CCC(OCCOC5CCOCC5)CC4)cnc3c2)CC1` [Example 77], the activity at 0.1 µg/mL was no less than 200%.
For `N#Cc1ccc2ncc(-c3ccc(OCCOC4COCC4O)cc3)n2c1` (centres unmarked) [Example 91], the activity at 0.1 µg/mL is no less than 200%.
Then `NC(=O)c1ccc(-c2ccc3c(c2)ncn3-c2ccc(OCCO)cc2)cc1` [Example 15, 4-{1-[4-(2-Hydroxyethoxy)phenyl]-1H-benzimidazol-5-yl}benzamide dihydrochloride], with no less than 200%.
The figure for `CC(=O)n1ccc(-c2ccc3c(c2)ncn3-c2ccc(OCCO)cc2)c1` [Example 62] is no less than 200%.
The figure for `Cn1cc(-c2ccn3c(N4CCC(OCCOC5CCOCC5)CC4)cnc3c2)cn1` [Example 104] is no less than 200%; for `N#Cc1ccn2c(-c3ccc(OCCO)cc3)cnc2c1` [Example 75] it is no less than 200%.
Turning to `OCCOc1ccc(-n2cnc3cc(-c4ccccc4)ccc32)cc1` [Example 41], the activity at 0.1 µg/mL is no less than 200%.
Regarding `CS(=O)(=O)N1CC=C(c2ccc3c(c2)ncn3-c2ccc(OCCO)cc2)CC1` [Example 61], the activity at 0.1 µg/mL was no less than 200%.
Then `Cn1cc(-c2ccc3c(c2)ncn3-c2ccc(OCCO)cc2)cn1` [Example 63], with no less than 200%; and `O=C(c1ccc(-c2ccn3c(N4CCC(OCCO)CC4)cnc3c2)cc1)N1CCOCC1` [Example 103], with no less than 200%.
The figure for `OCCOc1ccc(-n2cnc3cc(-c4cncnc4)ccc32)cc1` [Example 38] is no less than 200%; for `c1coc(-c2ccc3ncc(-c4ccc(OCCOC5CCOCC5)cc4)n3c2)n1` [Example 150] it is no less than 200%; for `OCCOc1ccc(-n2cnc3ccc(F)cc32)cc1` [Example 47] it is no less than 200%.
Then `OCCOc1ccc(-c2cnn3ccccc23)cc1` [Example 117], with no less than 200%; and `COc1ccc2c(c1)ncn2-c1ccc(NCCO)cc1` [Example 5, 2-{[4-(5-Methoxy-1H-benzimidazol-1-yl)phenyl]amino}ethanol hydrochloride], with no less than 200%.
In the case of `CC(=O)Nc1ccc(-c2ccc3c(c2)ncn3-c2ccc(OCCO)cc2)cc1` [Example 14, N-(4-{1-[4-(2-Hydroxyethoxy)phenyl]-1H-benzimidazol-5-yl}phenyl)acetamide], the activity at 0.1 µg/mL is no less than 200%.
Then `c1ccc2c(c1)ncn2-c1ccc(NCCOC2CCOCC2)cc1` [Example 101], with no less than 200%.
As for `N#Cc1ccc2ncn(-c3ccc(OCCOC4COCC4O)cc3)c2c1` (centres unmarked) [Example 94], the activity at 0.1 µg/mL was no less than 200%.
Consider `Fc1ccc2ncc(-c3ccc(OCCOC4CCOCC4)cc3)n2c1` [Example 144], for which the activity at 0.1 µg/mL was no less than 200%.
`OCCOc1ccc(-c2cnn3cc(-c4ccncc4)ccc23)cc1` [Example 11, 2-[4-(6-Pyridin-4-ylpyrazolo[1,5-a]pyridin-3-yl)phenoxy]ethanol]: the activity at 0.1 µg/mL was no less than 200%.
Take `c1cc(-c2ccn3c(-c4ccc(OCCOC5CCOCC5)cc4)cnc3c2)ccn1` [Example 74]: the activity at 0.1 µg/mL is no less than 200%.
Then `O=C(c1ccc(-c2ccc3c(c2)ncn3-c2ccc(OCCO)cc2)cn1)N1CCOCC1` [Example 16, 2-(4-{5-[6-(Morpholin-4-ylcarbonyl)pyridin-3-yl]-1H-benzimidazol-1-yl}phenoxy)ethanol], with no less than 200%; and `c1cn(-c2ccc3ncc(-c4ccc(OCCOC5CCOCC5)cc4)n3c2)cn1` [Example 112], with no less than 200%.
The figure for `OCCOc1ccc(-n2cnc3cc(N4CCOCC4)ccc32)cc1` [Example 36] is no less than 200%; for `COC1COCC1OCCOc1ccc(-c2cnc3ccc(F)cn23)cc1` (centres unmarked) [Example 84] it is no less than 200%; for `c1ccn2ncc(-c3ccc(OCCOC4CCOCC4)cc3)c2c1` [Example 147] it is no less than 200%.
The figure for `c1cc(-c2ccc3ncc(-c4ccc(OCCOC5CCOCC5)cc4)n3c2)ccn1` [Example 141] is no less than 200%; for `c1ccn2ncc(-c3ccc(NCCOC4CCOCC4)cc3)c2c1` [Example 143] it is no less than 200%.
`CC(=O)N1CC=C(c2ccn3c(N4CCC(OCCO)CC4)cnc3c2)CC1` [Example 10, 2-({1-[7-(1-Acetyl-1,2,3,6-tetrahydropyridin-4-yl)imidazo[1,2-a]pyridin-3-yl]piperidin-4-yl}oxy)ethanol hydrochloride]: the activity at 0.1 µg/mL was no less than 200%.
Then `OCCOC1CCN(c2cnc3cc(-c4ccncc4)ccn23)CC1` [Example 76], with no less than 200%.
